The values below come from patent US20260207450A1, “ANTI-DANDRUFF COMPOSITIONS” (Firmenich SA, priority 2022, published 2026).

Structures are written as SMILES.

In test [1] the test system is M. restricta ATCC MYA-4611. As to the kind of experiment: Cylinder diffusion assay, hair conditioner base with 0.35% PO and mixtures, M. restricta. In kind it is cell-based, Malassezia restricta. Particulars: conditioner containing 0.35% PO without mixture; 25% conditioner solution, 80 μL cylinder, 4 days. How it is done:
A hair conditioner base was prepared. The main components included water, cetyl alcohol, MIRASIL® ADME-NP (water (and) amodimethicone (and) trideceth-6), stearyl alcohol, behentrimonium methosulfate (and) Isopropanol.
Anti-Malassezia effect of hair conditioners was determined using cylinder diffusion assay that was used for testing shampoos, as described above. In brief, working cultures of M. restricta ATCC MYA-4611 and inoculated as described in disc diffusion assay. Cylinders were placed on inoculated agar plates. Aliquots (80 μL) of each sample (25% conditioner solution) were added to each cylinder. Agar plates were incubated at 30° C. for 4 days. After incubation, diameters of the clear inhibition zones around the discs were measured.

Another test deals with M. furfur DSM 6170. As to the kind of experiment: Disc-diffusion assay, (2E,6Z)-2,6-nonadienal with anti-dandruff actives in DMSO, M. furfur. Format: cell-based, Malassezia furfur. The settings on record: Table 5; 0.19% in DMSO, 6 mm disc, 3 days. The procedure:
The anti-Malassezia effect of perfumery materials in combination of anti-dandruff actives using the disk-diffusion assay, modified based on the method of J Mycol Infect 2018; 23: 91-98. working culture of M. furfur DSM 6170 was prepared from −80 C stock culture on mDixon agar plate, and cells were suspended in 0.9% saline, and spread onto mDixon agar surface to prepare lawn plates. Discs (Whatman, 6 mm in diameter) were placed on inoculated mDixon agar plates. Test sample solutions are prepared in DMSO. Aliquots (20 μL) of each sample solution was added to each disc. Agar plates were incubated at 30° C. for 3 days. After incubation, diameters of the clear inhibition zones around the discs were measured.

As for `Cc1cc(CC(C)CC(C)(C)C)n(O)c(=O)c1.NCCO` (centres unmarked) [Piroctone Olamine (PO), Piroctone Olamine], in test [1], the “Inhibition zone diameter (mm) against M. restricta” value was “No inhibition zone”. In addition, in the test on M. furfur DSM 6170, the “Inhibition zone (mm) on M. furfur” value was determined as 11.8 mm.
